pIC50: −log10 of the molar value. Counter-ions that a name gives are not always drawn.
Key:
HT-29 = experiment: Cytotoxicity against human HT-29 cells by MTT assay; format: functional, cell-based
HL-60 = experiment: Cytotoxicity against human HL60 cells by MTT assay; format: functional, cell-based
HeLa = experiment: Cytotoxicity against human HeLa cells by MTT assay; format: functional, cell-based
[1] = molecular target: T1, DNA topoisomerase 1 (Homo sapiens) (UniProt P11387); experiment: Inhibition of human topoisomerase 1 at 20 uM
T1 sequence (whole entry): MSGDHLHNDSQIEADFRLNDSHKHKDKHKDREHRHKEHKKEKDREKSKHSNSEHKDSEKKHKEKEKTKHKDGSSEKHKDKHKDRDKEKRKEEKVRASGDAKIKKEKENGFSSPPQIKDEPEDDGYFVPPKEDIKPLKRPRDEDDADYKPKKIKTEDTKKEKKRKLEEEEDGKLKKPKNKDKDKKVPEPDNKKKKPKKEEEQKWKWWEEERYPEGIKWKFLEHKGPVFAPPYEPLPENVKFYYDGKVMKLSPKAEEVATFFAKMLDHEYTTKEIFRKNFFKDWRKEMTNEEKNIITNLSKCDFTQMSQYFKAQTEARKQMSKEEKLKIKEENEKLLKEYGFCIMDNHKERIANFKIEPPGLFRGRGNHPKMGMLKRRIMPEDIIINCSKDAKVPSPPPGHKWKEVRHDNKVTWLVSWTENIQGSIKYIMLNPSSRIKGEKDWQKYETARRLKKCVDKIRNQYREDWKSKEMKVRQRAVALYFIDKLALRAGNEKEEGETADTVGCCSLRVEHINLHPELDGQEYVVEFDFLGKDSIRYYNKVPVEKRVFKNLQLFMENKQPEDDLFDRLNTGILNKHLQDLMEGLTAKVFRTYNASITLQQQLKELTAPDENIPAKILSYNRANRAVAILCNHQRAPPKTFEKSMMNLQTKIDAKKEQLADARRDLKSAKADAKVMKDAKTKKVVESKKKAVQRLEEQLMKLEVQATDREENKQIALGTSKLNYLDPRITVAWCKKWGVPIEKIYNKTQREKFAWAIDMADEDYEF

[2] = molecular target: DNA topoisomerase 2-alpha (Homo sapiens) (UniProt P11388); experiment: Inhibition of human topoisomerase 2 at 100 uM
Sequence of DNA topoisomerase 2-alpha (Homo sapiens) (P11388 whole entry): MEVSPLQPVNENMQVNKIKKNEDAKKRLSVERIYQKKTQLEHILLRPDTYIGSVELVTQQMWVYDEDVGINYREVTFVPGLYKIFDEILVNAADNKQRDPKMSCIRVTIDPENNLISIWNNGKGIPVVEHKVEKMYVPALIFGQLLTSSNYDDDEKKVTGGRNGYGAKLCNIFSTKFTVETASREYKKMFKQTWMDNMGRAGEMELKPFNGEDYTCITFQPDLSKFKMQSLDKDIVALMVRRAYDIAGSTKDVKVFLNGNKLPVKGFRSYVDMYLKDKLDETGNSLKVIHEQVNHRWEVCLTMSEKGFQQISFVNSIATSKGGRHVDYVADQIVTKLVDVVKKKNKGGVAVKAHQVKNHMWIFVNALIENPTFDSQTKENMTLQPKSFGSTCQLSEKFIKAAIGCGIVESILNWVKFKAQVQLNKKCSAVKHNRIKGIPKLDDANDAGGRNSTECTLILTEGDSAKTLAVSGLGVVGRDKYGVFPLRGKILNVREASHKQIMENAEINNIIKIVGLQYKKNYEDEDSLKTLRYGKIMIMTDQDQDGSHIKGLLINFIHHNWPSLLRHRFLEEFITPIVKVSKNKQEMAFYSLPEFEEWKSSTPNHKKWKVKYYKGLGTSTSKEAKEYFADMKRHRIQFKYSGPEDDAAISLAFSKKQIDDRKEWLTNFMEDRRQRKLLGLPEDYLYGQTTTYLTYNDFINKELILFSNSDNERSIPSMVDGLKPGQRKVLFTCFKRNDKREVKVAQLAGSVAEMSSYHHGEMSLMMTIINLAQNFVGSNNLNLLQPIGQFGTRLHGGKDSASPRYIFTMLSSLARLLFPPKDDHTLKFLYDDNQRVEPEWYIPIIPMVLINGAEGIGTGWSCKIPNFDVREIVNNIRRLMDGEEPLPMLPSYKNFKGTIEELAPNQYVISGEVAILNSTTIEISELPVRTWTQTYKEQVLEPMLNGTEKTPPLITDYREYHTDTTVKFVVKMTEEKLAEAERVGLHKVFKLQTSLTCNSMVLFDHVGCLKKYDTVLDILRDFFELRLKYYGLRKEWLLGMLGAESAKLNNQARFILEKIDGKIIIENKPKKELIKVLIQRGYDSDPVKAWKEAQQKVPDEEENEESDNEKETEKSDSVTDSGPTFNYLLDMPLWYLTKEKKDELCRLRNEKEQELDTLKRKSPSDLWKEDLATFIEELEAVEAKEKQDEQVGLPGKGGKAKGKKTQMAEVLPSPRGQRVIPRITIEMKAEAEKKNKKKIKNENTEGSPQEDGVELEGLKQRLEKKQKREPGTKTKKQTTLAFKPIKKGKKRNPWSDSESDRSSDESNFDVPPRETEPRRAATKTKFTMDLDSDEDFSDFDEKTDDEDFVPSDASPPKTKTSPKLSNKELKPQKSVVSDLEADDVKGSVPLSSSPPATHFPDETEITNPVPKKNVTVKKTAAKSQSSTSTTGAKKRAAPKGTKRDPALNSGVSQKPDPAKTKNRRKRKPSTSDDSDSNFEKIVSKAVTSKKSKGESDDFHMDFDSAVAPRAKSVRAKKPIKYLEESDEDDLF

MDA-MB-231 = experiment: Cytotoxicity against human MDA-MB-231 cells by MTT assay; format: functional, cell-based
[3] = molecular target: DNA topoisomerase 2-alpha (Homo sapiens) (UniProt P11388); experiment: Inhibition of human topoisomerase 2 at 20 uM
DU-145 = experiment: Cytotoxicity against human DU145 cells by MTT assay; format: functional, cell-based
[4] = molecular target: T1, DNA topoisomerase 1 (Homo sapiens); experiment: Inhibition of human topoisomerase 1 at 100 uM

SMILES | pIC50 (HT-29) | pIC50 (HL-60) | pIC50 (HeLa) | inhibition [1] | inhibition [2] | pIC50 (MDA-MB-231) | inhibition [3] | pIC50 (DU-145) | inhibition [4]
O=c1c2cccnc2oc2cc(OCC3CO3)cc(O)c12 (centres undefined) | 4.58 | 4.61 | 4.66 | 1.8% | 30.3% | 4.61 | 8.3% | 5.09 | 0%
O=c1c2cccnc2oc2cc(OCC3CS3)cc(OCC3CS3)c12 (centres undefined) | < 4.30 | 4.98 | 5.00 | 5.2% | 6.7% | 4.89 | 8.6% | 4.68 | 0%
O=c1c2ccccc2[nH]c2cc(OCC3CO3)cc(O)c12 (centres undefined) | < 4.30 | 4.90 | < 4.30 | 10.8% | 18.1% | 4.73 | 12.9% | < 4.30 | 9.1%
O=c1c2ccccc2[nH]c2cc(OCC3CS3)cc(OCC3CS3)c12 (centres undefined) | 4.63 | 5.11 | 4.95 | 0% | 6.9% | 5.10 | 8.5% | 4.63 | 0%
COc1cc([C@@H]2c3cc4c(cc3[C@@H](O[C@@H]3O[C@@H]5CO[C@@H](C)O[C@H]5[C@H](O)[C@H]3O)[C@H]3COC(=O)[C@H]23)OCO4)cc(OC)c1O [ETOPOSIDE] | 5.20 | 6.03 | 5.67 | – | – | 5.46 | 13.4% | 5.29 | –
O=c1c2ccccc2[nH]c2cc(OCC3CO3)cc(OCC3CO3)c12 (centres undefined) | 4.53 | 4.66 | < 4.30 | 2.5% | 13.2% | 4.54 | 8.7% | 4.51 | 0%
COc1cccc2c1C(=O)c1c(O)c3c(c(O)c1C2=O)C[C@@](O)(C(=O)CO)C[C@@H]3O[C@H]1C[C@H](N)[C@H](O)[C@H](C)O1 [DOXORUBICIN HYDROCHLORIDE] | 5.41 | 6.06 | 5.97 | – | – | 5.78 | – | 5.60 | –
O=c1c2ccccc2[nH]c2cc(OCC3CS3)cc(O)c12 (centres undefined) | 4.48 | 4.64 | < 4.30 | 0% | 8.7% | 4.67 | 8.1% | 4.64 | 2.3%
O=c1c2cccnc2oc2cc(OCC3CS3)cc(O)c12 (centres undefined) | < 4.30 | 4.70 | 5.16 | 26.7% | 19.5% | 4.74 | 9.2% | 4.80 | 50.3%
CC[C@@]1(O)C(=O)OCc2c1cc1n(c2=O)Cc2cc3ccccc3nc2-1 [CAMPTOTHECIN] | 5.97 | 7.17 | 6.24 | – | – | 6.17 | – | 6.00 | –

— ChEMBL document CHEMBL1154361, “Oxiranylmethyloxy or thiiranylmethyloxy-azaxanthones and -acridone analogues as potential topoisomerase I inhibitors” (Bioorg Med Chem Lett, 2009)
